Assay results reported in the supplement of paper PMC11061612.

Tests used:
Experiment in all cases: combination Emax (second highest fraction inhibited in the dose matrix, 72 h); higher = more inhibition; extreme values may be limits of the assay
[1] = system: NCI-H2122 (Lung Adenocarcinoma)
Outline: (§1)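 After 24 hours at 37°C and 5% CO2 in 1536-well plates, cells in DMEM/F12 or RPMI plus 10% FBS received two-drug dose matrices for 72 hours. Viability came from CellTiter-Glo 2.0 luminescence and was scaled as inhibition, anchored at 0 by vehicle wells and at 1 by blank wells. Combination Emax is taken as the second-highest inhibition in the matrix, and Bliss excess as the observed combination effect less EA + EB − EA·EB, with EA and EB the single-agent effects.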

[2] = system: ME-180 (Cervical Carcinoma)
Outline: as §1

[3] = system: NCI-H522 (Lung Adenocarcinoma)
Outline: as §1

[4] = system: KGN (Other Solid Carcinomas)
Outline: as §1

EW-1 (Ewing's Sarcoma) = system: EW-1 (Ewing's Sarcoma)
Outline: as §1

[5] = system: CADO-ES1 (Ewing's Sarcoma)
Outline: as §1

[6] = system: HAL-01 (B-Lymphoblastic Leukemia)
Outline: as §1

[7] = system: EFO-21 (Ovarian Carcinoma)
Outline: as §1

Hey (Ovarian Carcinoma) = system: Hey (Ovarian Carcinoma)
Outline: as §1

[8] = system: G-401 (Other Solid Carcinomas)
Outline: as §1

[9] = system: NCI-H650 (Lung Adenocarcinoma)
Outline: as §1

[10] = system: OE33 (Esophageal Adenocarcinoma)
Outline: as §1

[11] = system: OACM5-1 (Esophageal Adenocarcinoma)
Outline: as §1

[12] = system: COLO-668 (Small Cell Lung Carcinoma)
Outline: as §1

[13] = system: HCC1500 (Breast Carcinoma)
Outline: as §1

[14] = system: MOG-G-UVW (Low Grade Glioma)
Outline: as §1

[15] = system: MV-4-11 (Acute Myeloid Leukemia)
Outline: as §1

[16] = system: DU-145 (Prostate Carcinoma)
Outline: as §1

[17] = system: Mo-T (Other Blood Carcinomas)
Outline: as §1

| SMILES | combination Emax [1] | combination Emax [2] | combination Emax [3] | combination Emax [4] | combination Emax (EW-1 (Ewing's Sarcoma)) | combination Emax [5] | combination Emax [6] | combination Emax [7] | combination Emax (Hey (Ovarian Carcinoma)) | combination Emax [8] | combination Emax [9] | combination Emax [10] | combination Emax [11] | combination Emax [12] | combination Emax [13] | combination Emax [14] | combination Emax [15] | combination Emax [16] | combination Emax [17] |
| --- | --- | --- | --- | --- | --- | --- | --- | --- | --- | --- | --- | --- | --- | --- | --- | --- | --- | --- | --- |
| CC1(C)CCC(CN2CCN(c3ccc(C(=O)NS(=O)(=O)c4ccc(NCC5CCOCC5)c([N+](=O)[O-])c4)c(Oc4cnc5[nH]ccc5c4)c3)CC2)=C(c2ccc(Cl)cc2)C1 [Venetoclax] + C=CCn1c(=O)c2cnc(Nc3ccc(N4CCN(C)CC4)cc3)nc2n1-c1cccc(C(C)(C)O)n1 [AZD1775] (first compound max 1 µM, partner max 1 µM) | 0.98 | 0.599 | 0.289 | 0.68 | 0.947 | 0.68 | 1 | 0.581 | 0.667 | 0.83 | 0.393 | 0.623 | 0.558 | 0.943 | 0.781 | 0.933 | 1 | 0.349 | 0.629 |
| CC1(C)CCC(CN2CCN(c3ccc(C(=O)NS(=O)(=O)c4ccc(NCC5CCOCC5)c([N+](=O)[O-])c4)c(Oc4cnc5[nH]ccc5c4)c3)CC2)=C(c2ccc(Cl)cc2)C1 [Venetoclax] + C[C@@H](Nc1cc(F)cc(F)c1)c1cc(C(=O)N(C)C)cc2c(=O)cc(N3CCOCC3)oc12 [AZD8186] (first compound max 1 µM, 7x7, partner max 3 µM) | 0.174 | 0.129 | 0.0652 | 0.333 | 0.303 | 0.625 | 0.988 | 0.248 | 0.139 | 0.345 | 0.142 | 0.211 | 0.495 | 0.438 | 0.736 | 0.45 | 1 | 0.153 | 0.632 |
| CC(=O)Nc1cccc(-n2c(=O)n(C3CC3)c(=O)c3c(Nc4ccc(I)cc4F)n(C)c(=O)c(C)c32)c1 [Trametinib] + Cc1nc(-c2cn3c(n2)-c2ccc(-c4cnn(C(C)(C)C(N)=O)c4)cc2OCC3)n(C(C)C)n1 [Taselisib] (first compound max 1 µM, 7x7, partner max 10 µM) | 1 | 0.714 | 0.245 | 0.807 | 0.761 | 0.245 | 0.687 | 0.618 | 0.893 | 0.958 | 0.705 | 0.84 | 0.82 | 0.96 | 0.319 | 0.955 | 0.848 | 0.411 | 0.524 |
| CC1(C)CCC(CN2CCN(c3ccc(C(=O)NS(=O)(=O)c4ccc(NCC5CCOCC5)c([N+](=O)[O-])c4)c(Oc4cnc5[nH]ccc5c4)c3)CC2)=C(c2ccc(Cl)cc2)C1 [Venetoclax] + CN(C)CCCOc1ccc(-c2ccc3ncc4c(c3c2)n(C2CCOCC2)c(=O)n4C)cn1 [AZD0156] (first compound max 1 µM, 7x7, partner max 1 µM) | 0.212 | 0.211 | 0.141 | 0.488 | 0.179 | 0.692 | 0.936 | 0.29 | 0.216 | 0.35 | 0.0987 | 0.219 | 0.262 | 0.452 | 0.864 | 0.726 | 1 | 0.0977 | 0.558 |
| CCc1c2c(nc3ccc(O)cc13)-c1cc3c(c(=O)n1C2)COC(=O)[C@]3(O)CC [SN-38] + CN(C)CCCOc1ccc(-c2ccc3ncc4c(c3c2)n(C2CCOCC2)c(=O)n4C)cn1 [AZD0156] (first compound max 0.3 µM, 7x7, partner max 1 µM) | 0.843 | 0.892 | 0.43 | 0.937 | 0.982 | 1 | 1 | 0.529 | 0.732 | 0.596 | 0.607 | 0.642 | 0.763 | 0.961 | 0.708 | 0.854 | 1 | 0.742 | 0.673 |
| COc1cccc2c1C(=O)c1c(O)c3c(c(O)c1C2=O)C[C@@](O)(C(=O)CO)C[C@@H]3O[C@H]1C[C@H](N)[C@H](O)[C@H](C)O1 [Doxorubicin] + Cc1cc2ncnn2cc1Nc1ncc2c(n1)n(C1CCOCC1)c(=O)n2C [AZD7648] (first compound max 1 µM, 7x7, partner max 10 µM) | 0.284 | 0.958 | 0.697 | 0.901 | 0.952 | 0.873 | 0.986 | 0.482 | 0.906 | 0.938 | 0.334 | 0.526 | 0.834 | 0.93 | 0.887 | 0.867 | 1 | 0.649 | 0.871 |
| COc1cccc(OCCCN)c1-c1cc(Nc2cnc(C#N)cn2)n[nH]1 [Prexasertib] + CN(C)CCCOc1ccc(-c2ccc3ncc4c(c3c2)n(C2CCOCC2)c(=O)n4C)cn1 [AZD0156] (first compound max 1 µM, 7x7, partner max 1 µM) | 0.975 | 0.324 | 0.385 | 0.753 | 0.958 | 0.956 | 1 | 0.731 | 0.82 | 0.626 | 0.671 | 0.826 | 0.624 | 0.758 | 0.348 | 0.88 | 0.998 | 0.624 | 0.392 |
| COc1cccc(OCCCN)c1-c1cc(Nc2cnc(C#N)cn2)n[nH]1 [Prexasertib] + Cc1cc2ncnn2cc1Nc1ncc2c(n1)n(C1CCOCC1)c(=O)n2C [AZD7648] (first compound max 1 µM, 7x7, partner max 10 µM) | 0.984 | 0.411 | 0.385 | 0.859 | 0.962 | 0.94 | 1 | 0.656 | 0.777 | 0.588 | 0.653 | 0.823 | 0.643 | 0.786 | 0.334 | 0.904 | 1 | 0.649 | 0.523 |
| CC1(C)CCC(CN2CCN(c3ccc(C(=O)NS(=O)(=O)c4ccc(NCC5CCOCC5)c([N+](=O)[O-])c4)c(Oc4cnc5[nH]ccc5c4)c3)CC2)=C(c2ccc(Cl)cc2)C1 [Venetoclax] + Cn1cnc2c(F)c(Nc3ccc(Br)cc3Cl)c(C(=O)NOCCO)cc21 [Selumetinib] (first compound max 1 µM, 7x7, partner max 3 µM) | 0.679 | 0.256 | 0.0772 | 0.246 | 0.238 | 0.632 | 0.97 | 0.264 | 0.55 | 0.33 | 0.239 | 0.174 | 0.336 | 0.787 | 0.612 | 0.413 | 1 | 0.184 | 0.618 |
| CC1(C)CCC(CN2CCN(c3ccc(C(=O)NS(=O)(=O)c4ccc(NCC5CCOCC5)c([N+](=O)[O-])c4)c(Oc4cnc5[nH]ccc5c4)c3)CC2)=C(c2ccc(Cl)cc2)C1 [Venetoclax] + CCN(CCO)CCCOc1ccc2c(Nc3cc(CC(=O)Nc4cccc(F)c4)[nH]n3)ncnc2c1 [AZD2811] (first compound max 1 µM, 7x7, partner max 1 µM) | 0.702 | 0.243 | 0.217 | 0.509 | 0.365 | 0.755 | 0.959 | 0.375 | 0.266 | 0.483 | 0.178 | 0.174 | 0.421 | 0.618 | 0.855 | 0.636 | 1 | 0.157 | 0.611 |
| CCc1c2c(nc3ccc(O)cc13)-c1cc3c(c(=O)n1C2)COC(=O)[C@]3(O)CC [SN-38] + O=C(c1cc(Cc2n[nH]c(=O)c3ccccc23)ccc1F)N1CCN(C(=O)C2CC2)CC1 [Olaparib] (first compound max 0.3 µM, 7x7, partner max 10 µM) |  | 0.914 | 0.389 | 0.918 | 0.99 | 0.987 | 1 | 0.586 | 0.72 |  |  | 0.587 | 0.796 | 1 | 0.873 | 0.825 | 1 | 0.813 | 0.724 |
| CC1(C)CCC(CN2CCN(c3ccc(C(=O)NS(=O)(=O)c4ccc(NCC5CCOCC5)c([N+](=O)[O-])c4)c(Oc4cnc5[nH]ccc5c4)c3)CC2)=C(c2ccc(Cl)cc2)C1 [Venetoclax] + COc1cc(Nc2ncc3c(n2)-c2ccc(Cl)cc2C(c2c(F)cccc2OC)=NC3)ccc1C(=O)O [Alisertib] (first compound max 1 µM, 7x7, partner max 10 µM) | 0.939 | 0.603 | 0.277 | 0.685 | 0.628 | 0.957 | 1 | 0.359 | 0.61 | 0.657 | 0.319 | 0.314 | 0.663 | 0.474 | 0.805 | 0.722 | 1 | 0.268 | 0.71 |
| COc1cccc(OCCCN)c1-c1cc(Nc2cnc(C#N)cn2)n[nH]1 [Prexasertib] + C[C@@H]1COCCN1C2=NC(=NC(=C2)C3(CC3)[S@](=N)(=O)C)C4=C5C=CNC5=NC=C4 [AZD6738] (first compound max 1 µM, 7x7, partner max 10 µM) | 0.99 | 0.485 | 0.388 | 0.834 | 0.96 | 0.918 | 1 | 0.638 | 0.877 | 0.565 | 0.647 | 0.858 | 0.621 | 0.746 | 0.383 | 0.917 | 1 | 0.666 | 0.571 |
